# Measured values: patent publication US12496329B2, “Methods of using and compositions including an incretin analog” (Eli Lilly and Company, priority 2021, dated 2025)
# Experiment: SAD study: safety and tolerability
# Type: in vivo, human
# Description: Studies are designed to evaluate the safety, tolerability, pharmacodynamics (PD) and pharmacokinetics (PK) of the GGG tri-receptor agonist (SEQ ID NO:1) in healthy individuals. The SAD study is a randomized, investigator- and participant-blind, placebo-controlled, single-dose, single-site, dose-escalation study conducted in healthy individuals (e.g., overtly healthy females or males aged 21-65 years, inclusive, with a BMI 19-40 kg/m^2 at screening).
# Six dose levels of the GGG tri-receptor agonist-0.1, 0.3, 1.0, 3.0, 4.5 and 6.0 mg—are explored in the SAD study, as well as placebo (i.e., 0.0 mg). A dose escalation of the GGG tri-receptor agonist is assessed in cohorts of healthy individuals (e.g., 6 individuals receiving the GGG tri-receptor agonist and 2 individuals receiving placebo per cohort). Staggered dosing is performed for each cohort, in which a new higher dose of the GGG tri-receptor agonist is administered. All injections are administered into the SC tissue of an abdominal wall, in a right or left lower quadrant.
# Safety analyses: Safety parameters assessed during the study included: AEs (with special interest to GI AEs such as nausea, vomiting, and diarrhea), laboratory parameters (with special attention to hepatic and pancreatic biomarkers), physical examinations/medical assessments, vital signs and ECGs, BW, injection site reactions, hypersensitivity reactions, and glucose monitoring (with special attention to hypoglycemia).
smiles,measurement,setting,value
"CC[C@H](C)[C@H](NC(=O)[C@H](Cc1ccccc1)NC(=O)[C@H](C)NC(=O)C(C)(C)NC(=O)[C@H](CCC(N)=O)NC(=O)[C@H](C)NC(=O)[C@H](CCCCNC(=O)COCCOCCNC(=O)CC[C@H](NC(=O)CCCCCCCCCCCCCCCCCCC(=O)O)C(=O)O)NC(=O)[C@H](CCCCN)NC(=O)[C@H](CC(=O)O)NC(=O)[C@H](CC(C)C)NC(=O)[C@](C)(CC(C)C)NC(=O)[C@@H](NC(=O)[C@H](CO)NC(=O)[C@H](Cc1ccc(O)cc1)NC(=O)[C@H](CC(=O)O)NC(=O)[C@H](CO)NC(=O)[C@@H](NC(=O)[C@H](Cc1ccccc1)NC(=O)[C@@H](NC(=O)CNC(=O)[C@H](CCC(N)=O)NC(=O)C(C)(C)NC(=O)[C@@H](N)Cc1ccc(O)cc1)[C@@H](C)O)[C@@H](C)O)[C@@H](C)CC)C(=O)N[C@@H](CCC(=O)O)C(=O)N[C@@H](Cc1ccc(O)cc1)C(=O)N[C@@H](CC(C)C)C(=O)N[C@@H](CC(C)C)C(=O)N[C@@H](CCC(=O)O)C(=O)NCC(=O)NCC(=O)N1CCC[C@H]1C(=O)N[C@@H](CO)C(=O)N[C@@H](CO)C(=O)NCC(=O)N[C@@H](C)C(=O)N1CCC[C@H]1C(=O)N1CCC[C@H]1C(=O)N1CCC[C@H]1C(=O)N[C@@H](CO)C(N)=O [GGG tri-receptor agonist, Y-Aib-QGTFTSDYSI-αMeL-LDKK((2-[2-(2-amino-ethoxy)-ethoxy]-acetyl)-(γGlu)-CO-(CH2)18-CO2H)AQ-Aib-AFIEYLLEGGPSSGAPPPS-NH2]","incidence of GI AEs (emesis, nausea)","Phase 1 dosing study, 6.0 mg or higher doses",higher-than-expected incidence of GI AEs
same,individuals reporting TEAEs,single SC dose,97.1%
same,injection-site reactions,single SC dose,No injection-site reactions
same,individuals reporting TEAEs related to study treatment,"single SC dose, 20 individuals",57.1%
same,hypoglycemic episodes,"single SC dose, all asymptomatic",low across all groups
same,severity of AEs,"single SC dose, dose-dependent",mild to moderate in severity
same,pulse rate,"single SC dose, returned to baseline or near-baseline by Day 29",Dose-related increases in pulse rate
same,tolerability,"single SC doses of 0.1, 0.3, 1.0 and 3.0 mg",well tolerated
same,"incidence of GI events (vomiting, abdominal distension, nausea)",single SC doses of 4.5 and 6.0 mg,increased incidence of GI events
